# Where two headings read alike, the source gives them in different places.
# Legend:
# Format in all cases: biochemical
# [1] = target: PGAM-B standard (based on pooled sera) (Homo sapiens, UniProt P18669); assay: Effect of potassium tetrathionate on PGAM-B, automatic analysis method (NADH reduction rate assay); settings: for remaining activity at 1900 µM: final potassium tetrathionate concentration 1.9 mM; for remaining activity at 1900 µM / remaining activity at 3800 µM / remaining activity at 7600 µM: 5-min reaction, read-out: Effect of potassium tetrathionate over PGAM-B (residual activity, 0 mM = 100); for remaining activity at 3800 µM: final potassium tetrathionate concentration 3.8 mM; for remaining activity at 7600 µM: final potassium tetrathionate concentration 7.6 mM
# Procedure: (§1) The reagent 1 (R-1; 250 µl) was mixed with a culture medium sample (5 µl), and the resulting mixture was then left to stand for 5 minutes. By subsequently using the reagent 2 (R-2), the PGAM activity was assayed.
# (§2) Because the reagent 2 (R-2) contained glycerate-3-P (substrate), the reaction was initiated by adding 41 µl of the reagent 2. About 1.5 minutes after the addition of the reagent 2, the assay was started.
# (§3) By using an automatic analyzer of Hitachi 7150 and by presetting the assay code to RATE-A: 32-39 and the assay temperature to 37 °C, the decrease of absorbance A at 340 nm was determined on the basis of the reduction of NADH for about 1.5 minutes. Additionally, a sub-wave length was set at 405 nm for the determination. Furthermore, the value of a conventionally known cell damage marker LDH (lactate dehydrogenase) is shown concurrently.
# (§4) Prior to the assay of B-PGAM in the cell culture medium, the effect of potassium tetrathionate on PGAM-B and PGAM-M was examined by the automatic analysis method. As the sample, a type-B standard and a type-M standard (both based on pooled sera) were used. These standards were diluted with physiological saline to prepare 1/1 to 1/8 samples. Various concentrations of potassium tetrathionate were added to these samples for 5-min reaction, and subsequently, the amounts of the type-B and type-M PGAMs were determined by utilizing the automatic analysis method.
# (§5) By using the reagents of Example 2, the amounts of PGAM-B and PGAM-M were individually determined by the automatic analysis method, and the results are shown below in Table 4. […]
# [2] = target: PGAM-M standard (based on pooled sera) (Homo sapiens, UniProt P15259); assay: Effect of potassium tetrathionate on PGAM-M, automatic analysis method (NADH reduction rate assay)
# Procedure: as §1, §2, §3, §4, §5
# [3] = target: type-B isozyme (Homo sapiens, UniProt P18669); assay: Inhibition experiment over purified PGAM isozymes, type-B; settings: tetrathionic acid used as the PGAM inhibitor
# From the text: (§6) The method for assaying PGAM in accordance with the invention will now be described about the case of the type-B isozyme. The method for assaying the type-B isozyme comprises treating a sample with a PGAM inhibitor to inactivate specific isozymes and assaying the remaining PGAM activity. […] By adding tetrathionic acid to serum to inactivate the type-M isozyme and subsequently assaying the residual PGAM activity, therefore, the type-B isozyme can be assayed separately.
# (§7) At an inhibition experiment over purified PGAM isozymes, only 50 % of the type-MB isozyme is inactivated through the treatment with tetrathionic acid, so 50 % of the activity remains. Because the PGAM activity in normal serum and brain tissue is nearly totally derived from the type-B isozyme in a practical sense, the residual activity of the type-MB isozyme is negligible in biological samples.
# [4] = target: type-MB isozyme (Homo sapiens, UniProt P15259); assay: Inhibition experiment over purified PGAM isozymes, type-MB; settings: treatment with tetrathionic acid
# From the text: as §6, §7
# [5] = target: type-M isozyme (Homo sapiens, UniProt P15259); assay: Inhibition experiment over purified PGAM isozymes, type-M; settings: tetrathionic acid used as the PGAM inhibitor
# From the text: as §6, §7
# [6] = dilution ratio 1/1, 0 mM = 100 (183U/L)
# [7] = dilution ratio 1/2, 0 mM = 100 (91U/L)
# [8] = dilution ratio 1/4, 0 mM = 100 (46U/L)
# [9] = dilution ratio 1/8, 0 mM = 100 (22U/L)
# Chain of PGAM-M standard (based on pooled sera) (P15259 whole entry): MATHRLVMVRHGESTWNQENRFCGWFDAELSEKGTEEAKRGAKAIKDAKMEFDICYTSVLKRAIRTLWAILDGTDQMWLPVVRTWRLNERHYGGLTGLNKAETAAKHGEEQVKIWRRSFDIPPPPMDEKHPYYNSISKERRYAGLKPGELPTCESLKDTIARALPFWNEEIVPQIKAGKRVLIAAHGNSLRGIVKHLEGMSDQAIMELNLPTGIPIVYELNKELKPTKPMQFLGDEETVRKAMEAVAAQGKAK
# Chain of PGAM-B standard (based on pooled sera) (P18669 whole entry): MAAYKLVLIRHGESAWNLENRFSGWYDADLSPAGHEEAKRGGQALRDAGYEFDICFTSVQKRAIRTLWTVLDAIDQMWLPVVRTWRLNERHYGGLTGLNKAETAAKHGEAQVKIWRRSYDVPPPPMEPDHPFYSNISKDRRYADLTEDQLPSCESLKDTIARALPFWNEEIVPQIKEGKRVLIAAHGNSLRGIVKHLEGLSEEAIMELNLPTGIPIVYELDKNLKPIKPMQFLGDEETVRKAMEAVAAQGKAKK
# Chain of type-M isozyme (P15259 whole entry): as the sequence (P15259 whole entry) above
# Chain of type-MB isozyme (P15259 whole entry): as above
# Chain of type-MB isozyme (P18669 whole entry, further chain): as the sequence (P18669 whole entry) above
# Chain of type-B isozyme (P18669 whole entry): as above
structure (smiles),measurement,setting,value
O=S(=O)([O-])SSS(=O)(=O)[O-].[K+].[K+] [potassium tetrathionate],remaining activity at 1900 µM,[1]; [6],98%
same,remaining activity at 1900 µM,[1]; [7],98%
same,remaining activity at 1900 µM,[1]; [8],97%
same,remaining activity at 1900 µM,[1]; [9],93%
same,remaining activity at 3800 µM,[1]; [6],92%
same,remaining activity at 3800 µM,[1]; [7],91%
same,remaining activity at 3800 µM,[1]; [8],86%
same,remaining activity at 3800 µM,[1]; [9],93%
same,remaining activity at 7600 µM,[1]; [6],81%
same,remaining activity at 7600 µM,[1]; [7],80%
same,remaining activity at 7600 µM,[1]; [8],59%
same,remaining activity at 7600 µM,[1]; [9],75%
same,type-B isozyme influenced by potassium tetrathionate (summary in words),[1]; summary of Table 4,absolutely never influenced
same,remaining activity at 1900 µM,"[2]; final potassium tetrathionate concentration 1.9 mM, dilution ratio 1/1, 5-min reaction, 0 mM = 100 (2727U/L), read-out: Effect of potassium tetrathionate over PGAM-M (residual activity, 0 mM = 100)",0%
same,remaining activity at 3800 µM,"[2]; final potassium tetrathionate concentration 3.8 mM, dilution ratio 1/1, 5-min reaction, 0 mM = 100 (2727U/L), read-out: Effect of potassium tetrathionate over PGAM-M (residual activity, 0 mM = 100)",0%
same,remaining activity at 7600 µM,"[2]; final potassium tetrathionate concentration 7.6 mM, dilution ratio 1/1, 5-min reaction, 0 mM = 100 (2727U/L), read-out: Effect of potassium tetrathionate over PGAM-M (residual activity, 0 mM = 100)",0%
same,type-M isozyme inactivated with potassium tetrathionate (summary in words),[2]; summary of Table 4,specifically inactivated
O=S(=O)(O)SSS(=O)(=O)O [tetrathionic acid],type-B isozyme inactivated (in words),[3],hardly inactivated
same,activity of the type-MB isozyme that remains,[4],50%
same,type-M isozyme inactivated,[5],~100%

# Reference: patent publication EP0937779A2, “Cell damage marker” (ORIENTAL YEAST CO., LTD., priority 1998, dated 1999)
